Results published in patent US20260124146A1, “MODIFIED RELEASE TOLCAPONE FORMULATIONS” (Corino Therapeutics, Inc., priority 2022, published 2026).
Converted amounts (≈) assume the structure as drawn. Read-outs that look alike come from different tables or passages of the source.

What was measured:
[1] = solubility assessment of micronized tolcapone in buffers (HPLC assay and visual observation); type: physicochemical; settings: for solubility at 1 h / solubility at 2 h: buffer, thermodynamic from solid
Description: Two aliquots of each sample were taken at 1 and 2 hour time points. One aliquot was used for Assay and Related Substances analysis by reverse phase HPLC and the other aliquot was used to obtain microscopic images using 5.5× magnification, polarised and non-polarised light. In addition, representative photograph of each n=1 sample at 1 hour time point were taken for information. pH of each sample was measured at 2 hour time point.

[2] = system: TTR; settings: cited from earlier work
[3] = safety evaluation in the Phase I study; type: in vivo, human; settings: single oral doses, healthy subjects
From the text: Treatment-emergent adverse events (TEAEs), serious adverse events (SAEs), vital signs, ECG measurements (triplicate), physical examination, standard laboratory evaluations.

Cc1ccc(C(=O)c2cc(O)c(O)c([N+](=O)[O-])c2)cc1 [tolcapone]
solubility (in words) ([1]; acidic conditions): poorly soluble
solubility (in words) ([1]; at about pH 6.8): improved solubility
solubility at 1 h ([1]; pH 2, aqueous buffer, pH 2.0, 1 Hour, replicates N=1, N=2, read-out: Assay (solubility by HPLC)): 0.023 mg/mL (≈ 84.2 µM)
solubility at 1 h ([1]; pH 2, aqueous buffer, pH 2.0, 1 Hour, read-out: Mean Assay (solubility by HPLC)): 0.02 mg/mL (≈ 73.2 µM)
solubility at 2 h ([1]; pH 2, aqueous buffer, pH 2.0, 2 Hour, replicates N=1, N=2, read-out: Assay (solubility by HPLC)): 0.02 mg/mL (≈ 73.2 µM)
solubility at 2 h ([1]; pH 2, aqueous buffer, pH 2.0, 2 Hour, read-out: Mean Assay (solubility by HPLC)): 0.021 mg/mL (≈ 76.9 µM)
solubility at 1 h ([1]; pH 4.5, aqueous buffer, pH 4.5, 1 Hour, replicates N=1, N=2, read-out: Assay (solubility by HPLC)): 0.045 mg/mL (≈ 165 µM)
solubility at 1 h ([1]; pH 4.5, aqueous buffer, pH 4.5, 1 Hour, read-out: Mean Assay (solubility by HPLC)): 0.045 mg/mL (≈ 165 µM)
solubility at 2 h ([1]; pH 4.5, aqueous buffer, pH 4.5, 2 Hour, replicates N=1, N=2, read-out: Assay (solubility by HPLC)): 0.052 mg/mL (≈ 190 µM)
solubility at 2 h ([1]; pH 4.5, aqueous buffer, pH 4.5, 2 Hour, read-out: Mean Assay (solubility by HPLC)): 0.051 mg/mL (≈ 187 µM)
solubility at 1 h ([1]; pH 5.5, aqueous buffer, pH 5.5, 1 Hour, replicates N=1, N=2, read-out: Assay (solubility by HPLC)): 0.258 mg/mL (≈ 944 µM)
solubility at 1 h ([1]; pH 5.5, aqueous buffer, pH 5.5, 1 Hour, read-out: Mean Assay (solubility by HPLC)): 0.248 mg/mL (≈ 908 µM)
solubility at 2 h ([1]; pH 5.5, aqueous buffer, pH 5.5, 2 Hour, replicates N=1, N=2, read-out: Assay (solubility by HPLC)): 0.283 mg/mL (≈ 1040 µM)
solubility at 2 h ([1]; pH 5.5, aqueous buffer, pH 5.5, 2 Hour, read-out: Mean Assay (solubility by HPLC)): 0.275 mg/mL (≈ 1010 µM)
solubility at 1 h ([1]; pH 6.8, aqueous buffer, pH 6.8, 1 Hour, replicates N=1, N=2, read-out: Assay (solubility by HPLC)): 0.92 mg/mL (≈ 3370 µM)
solubility at 1 h ([1]; pH 6.8, aqueous buffer, pH 6.8, 1 Hour, read-out: Mean Assay (solubility by HPLC)): 1.28 mg/mL (≈ 4690 µM)
solubility at 2 h ([1]; pH 6.8, aqueous buffer, pH 6.8, 2 Hour, replicates N=1, N=2, read-out: Assay (solubility by HPLC)): 0.905 mg/mL (≈ 3310 µM)
solubility at 2 h ([1]; pH 6.8, aqueous buffer, pH 6.8, 2 Hour, read-out: Mean Assay (solubility by HPLC)): 1.03 mg/mL (≈ 3780 µM)
solubility at 1 h ([1]; pH 7.4, aqueous buffer, pH 7.4, 1 Hour, replicates N=1, N=2, read-out: Assay (solubility by HPLC)): 0.473 mg/mL (≈ 1730 µM)
solubility at 1 h ([1]; pH 7.4, aqueous buffer, pH 7.4, 1 Hour, read-out: Mean Assay (solubility by HPLC)): 0.463 mg/mL (≈ 1690 µM)
solubility at 2 h ([1]; pH 7.4, aqueous buffer, pH 7.4, 2 Hour, replicates N=1, N=2, read-out: Assay (solubility by HPLC)): 0.489 mg/mL (≈ 1790 µM)
solubility at 2 h ([1]; pH 7.4, aqueous buffer, pH 7.4, 2 Hour, read-out: Mean Assay (solubility by HPLC)): 0.501 mg/mL (≈ 1830 µM)
Assay (solubility by HPLC) ([1]; pH 2.0, 1 Hour, replicates N=1, N=2): 0.018 mg/mL
Assay (solubility by HPLC) ([1]; pH 2.0, 2 Hour, replicates N=1, N=2): 0.023 mg/mL
Assay (solubility by HPLC) ([1]; pH 4.5, 2 Hour, replicates N=1, N=2): 0.051 mg/mL
Assay (solubility by HPLC) ([1]; pH 5.5, 1 Hour, replicates N=1, N=2): 0.237 mg/mL
Assay (solubility by HPLC) ([1]; pH 5.5, 2 Hour, replicates N=1, N=2): 0.267 mg/mL
Assay (solubility by HPLC) ([1]; pH 6.8, 1 Hour, replicates N=1, N=2): 1.644 mg/mL
Assay (solubility by HPLC) ([1]; pH 6.8, 2 Hour, replicates N=1, N=2): 1.163 mg/mL
Assay (solubility by HPLC) ([1]; pH 7.4, 1 Hour, replicates N=1, N=2): 0.452 mg/mL
Assay (solubility by HPLC) ([1]; pH 7.4, 2 Hour, replicates N=1, N=2): 0.513 mg/mL
overall mean increase in plasma TTR tetramer concentration ([2]; 100 mg three times daily 14 days then 200 mg three times daily 14 days, oral, hATTR-leptomeningeal patients, plasma): 55%
mean decrease of monomeric TTR concentration in CSF ([2]; same regimen, CSF, measured under semi-denaturing conditions): 48%
safety and tolerability [3]: safe and well tolerated
